This is an account of results in ChEMBL document CHEMBL5465560, “Selectivity Literature for EUbOPEN Chemogenomic Library” (2024).

Test [1] has as its target Calcium/calmodulin-dependent protein kinase kinase 2 (Homo sapiens) (UniProt Q96RR4). Kind of test: Selectivity interaction (LanthaScreen Eu Kinase Binding Assay) EUB0001632a CAMKK2. The settings on record: at 10 µM.
Test [2] addresses Serine/threonine-protein kinase tousled-like 2 (Homo sapiens) (UniProt Q86UE8). Nature of the test: Selectivity interaction (Ambit KINOMEscan and KiNATiv profiling in Jurkat cells) EUB0000090b TLK2. The settings on record: at 1 µM. Format: cell-based.
In test [3] the target is T1, Discoidin domain-containing receptor 2 (Homo sapiens) (UniProt Q16832).
T1 sequence (whole entry): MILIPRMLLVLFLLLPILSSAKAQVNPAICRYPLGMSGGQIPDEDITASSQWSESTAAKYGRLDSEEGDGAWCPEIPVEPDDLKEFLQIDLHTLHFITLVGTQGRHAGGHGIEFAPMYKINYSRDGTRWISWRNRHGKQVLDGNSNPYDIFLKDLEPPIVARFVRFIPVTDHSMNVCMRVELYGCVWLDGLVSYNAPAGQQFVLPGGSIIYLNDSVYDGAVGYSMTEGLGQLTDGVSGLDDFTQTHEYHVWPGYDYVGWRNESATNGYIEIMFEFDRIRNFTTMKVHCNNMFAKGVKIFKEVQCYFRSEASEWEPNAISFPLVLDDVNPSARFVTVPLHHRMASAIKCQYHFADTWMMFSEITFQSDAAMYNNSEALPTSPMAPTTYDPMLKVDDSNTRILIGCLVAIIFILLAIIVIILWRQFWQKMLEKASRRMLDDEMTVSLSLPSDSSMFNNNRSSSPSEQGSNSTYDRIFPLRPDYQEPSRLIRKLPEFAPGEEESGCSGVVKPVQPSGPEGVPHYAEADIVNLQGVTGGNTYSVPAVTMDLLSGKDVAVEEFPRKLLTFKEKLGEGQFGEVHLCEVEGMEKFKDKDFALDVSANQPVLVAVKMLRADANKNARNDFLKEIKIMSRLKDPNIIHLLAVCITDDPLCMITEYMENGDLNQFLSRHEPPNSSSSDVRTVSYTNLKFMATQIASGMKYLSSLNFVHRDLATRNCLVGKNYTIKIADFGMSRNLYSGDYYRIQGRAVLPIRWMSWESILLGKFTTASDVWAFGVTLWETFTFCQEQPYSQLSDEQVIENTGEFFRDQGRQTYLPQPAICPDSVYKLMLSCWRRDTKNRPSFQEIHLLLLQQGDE
The settings on record: at 10 µM.

The target of test [4] is BDNF/NT-3 growth factors receptor (Homo sapiens) (UniProt Q16620). Kind of test: Selectivity interaction (KinaseProfiler screening (Millipore)) EUB0000601a NTRK2. The conditions noted are these: at 3 µM.
Chain of BDNF/NT-3 growth factors receptor (Homo sapiens) (Q16620 32-822 limits assumed): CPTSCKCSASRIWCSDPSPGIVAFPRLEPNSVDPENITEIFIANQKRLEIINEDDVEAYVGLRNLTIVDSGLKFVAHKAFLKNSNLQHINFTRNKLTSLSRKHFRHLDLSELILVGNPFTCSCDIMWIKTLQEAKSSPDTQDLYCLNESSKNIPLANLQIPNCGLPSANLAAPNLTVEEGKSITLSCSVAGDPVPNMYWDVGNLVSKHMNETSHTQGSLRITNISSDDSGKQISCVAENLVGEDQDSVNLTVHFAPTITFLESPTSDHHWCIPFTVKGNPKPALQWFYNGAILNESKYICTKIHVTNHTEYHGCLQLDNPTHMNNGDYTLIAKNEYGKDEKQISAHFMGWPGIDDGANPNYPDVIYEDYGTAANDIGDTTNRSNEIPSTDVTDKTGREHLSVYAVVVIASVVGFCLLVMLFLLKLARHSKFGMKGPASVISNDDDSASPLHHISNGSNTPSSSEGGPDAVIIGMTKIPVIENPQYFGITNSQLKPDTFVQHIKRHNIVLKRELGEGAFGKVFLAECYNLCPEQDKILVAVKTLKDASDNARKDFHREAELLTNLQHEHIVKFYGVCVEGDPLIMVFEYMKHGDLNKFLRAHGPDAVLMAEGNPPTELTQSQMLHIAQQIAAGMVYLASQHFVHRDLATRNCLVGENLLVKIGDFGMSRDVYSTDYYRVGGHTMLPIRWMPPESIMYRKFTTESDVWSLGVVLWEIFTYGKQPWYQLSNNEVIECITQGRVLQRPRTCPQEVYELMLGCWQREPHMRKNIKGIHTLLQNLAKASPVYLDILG
The target of test [5] is MAP/microtubule affinity-regulating kinase 3 (Homo sapiens) (UniProt P27448). Kind of test: Selectivity interaction (ActivX KiNativ screen (kinase selectivity in THP-1 cell lysates)) EUB0000639a MARK3. The test is classed as subcellular. The settings on record: lysate, at 5 µM.
Chain of MAP/microtubule affinity-regulating kinase 3 (Homo sapiens) (P27448 whole entry, looked up, canonical isoform): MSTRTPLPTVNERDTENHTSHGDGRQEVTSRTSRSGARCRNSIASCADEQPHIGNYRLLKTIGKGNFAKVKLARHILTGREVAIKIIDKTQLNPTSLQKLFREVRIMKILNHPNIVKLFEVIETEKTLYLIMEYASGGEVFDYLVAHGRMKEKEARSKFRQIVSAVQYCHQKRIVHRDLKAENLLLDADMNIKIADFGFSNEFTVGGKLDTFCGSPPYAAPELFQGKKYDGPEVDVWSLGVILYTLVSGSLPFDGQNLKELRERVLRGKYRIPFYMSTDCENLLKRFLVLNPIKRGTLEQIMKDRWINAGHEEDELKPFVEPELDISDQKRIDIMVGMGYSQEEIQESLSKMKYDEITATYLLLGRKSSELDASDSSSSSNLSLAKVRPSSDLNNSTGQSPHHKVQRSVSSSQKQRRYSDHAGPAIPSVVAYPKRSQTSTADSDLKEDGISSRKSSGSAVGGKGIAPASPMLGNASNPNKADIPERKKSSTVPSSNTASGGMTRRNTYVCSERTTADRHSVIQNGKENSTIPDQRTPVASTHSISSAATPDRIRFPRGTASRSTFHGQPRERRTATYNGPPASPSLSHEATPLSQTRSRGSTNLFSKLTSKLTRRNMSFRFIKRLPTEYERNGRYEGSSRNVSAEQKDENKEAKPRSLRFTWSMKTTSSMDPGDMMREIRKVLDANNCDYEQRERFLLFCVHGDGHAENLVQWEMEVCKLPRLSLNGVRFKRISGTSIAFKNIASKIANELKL
Test [6] concerns the target Casein kinase I isoform delta (Homo sapiens, UniProt P48730). Nature of the test: Selectivity interaction (ProQinase) EUB0000171b CSNK1D.
Test [7] concerns the target T2, Ephrin type-B receptor 1 (Homo sapiens) (UniProt P54762).
T2 sequence (whole entry): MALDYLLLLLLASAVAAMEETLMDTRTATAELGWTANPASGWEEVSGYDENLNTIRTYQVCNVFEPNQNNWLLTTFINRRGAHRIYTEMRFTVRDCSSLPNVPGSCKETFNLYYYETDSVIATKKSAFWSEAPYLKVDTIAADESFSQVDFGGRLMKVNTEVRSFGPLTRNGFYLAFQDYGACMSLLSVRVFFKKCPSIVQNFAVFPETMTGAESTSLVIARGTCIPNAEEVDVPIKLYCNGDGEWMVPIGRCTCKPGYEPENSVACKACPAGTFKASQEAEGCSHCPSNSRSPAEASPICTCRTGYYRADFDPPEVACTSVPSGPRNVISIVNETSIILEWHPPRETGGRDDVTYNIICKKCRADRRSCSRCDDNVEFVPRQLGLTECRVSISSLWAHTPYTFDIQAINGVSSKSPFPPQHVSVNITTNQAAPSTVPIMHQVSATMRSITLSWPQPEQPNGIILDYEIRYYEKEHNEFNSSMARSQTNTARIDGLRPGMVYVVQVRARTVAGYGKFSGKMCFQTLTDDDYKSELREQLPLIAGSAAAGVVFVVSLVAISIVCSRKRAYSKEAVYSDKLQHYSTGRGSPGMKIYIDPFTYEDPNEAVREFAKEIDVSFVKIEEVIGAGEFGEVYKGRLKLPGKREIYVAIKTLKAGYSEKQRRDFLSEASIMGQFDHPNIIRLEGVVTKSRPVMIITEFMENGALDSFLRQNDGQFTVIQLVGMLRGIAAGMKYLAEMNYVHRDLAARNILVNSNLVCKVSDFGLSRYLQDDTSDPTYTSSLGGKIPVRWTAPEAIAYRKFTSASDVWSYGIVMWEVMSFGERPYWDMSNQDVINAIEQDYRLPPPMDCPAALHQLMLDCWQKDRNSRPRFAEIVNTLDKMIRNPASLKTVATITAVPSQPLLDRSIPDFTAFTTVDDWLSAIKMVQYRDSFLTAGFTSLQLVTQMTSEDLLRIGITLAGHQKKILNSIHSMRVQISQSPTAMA
Nature of the test: Selectivity interaction (ProQinase) EUB0000171b EPHB1.

For test [8], the target named is T3, Serine/threonine-protein kinase TBK1 (Homo sapiens) (UniProt Q9UHD2).
T3 sequence (whole entry): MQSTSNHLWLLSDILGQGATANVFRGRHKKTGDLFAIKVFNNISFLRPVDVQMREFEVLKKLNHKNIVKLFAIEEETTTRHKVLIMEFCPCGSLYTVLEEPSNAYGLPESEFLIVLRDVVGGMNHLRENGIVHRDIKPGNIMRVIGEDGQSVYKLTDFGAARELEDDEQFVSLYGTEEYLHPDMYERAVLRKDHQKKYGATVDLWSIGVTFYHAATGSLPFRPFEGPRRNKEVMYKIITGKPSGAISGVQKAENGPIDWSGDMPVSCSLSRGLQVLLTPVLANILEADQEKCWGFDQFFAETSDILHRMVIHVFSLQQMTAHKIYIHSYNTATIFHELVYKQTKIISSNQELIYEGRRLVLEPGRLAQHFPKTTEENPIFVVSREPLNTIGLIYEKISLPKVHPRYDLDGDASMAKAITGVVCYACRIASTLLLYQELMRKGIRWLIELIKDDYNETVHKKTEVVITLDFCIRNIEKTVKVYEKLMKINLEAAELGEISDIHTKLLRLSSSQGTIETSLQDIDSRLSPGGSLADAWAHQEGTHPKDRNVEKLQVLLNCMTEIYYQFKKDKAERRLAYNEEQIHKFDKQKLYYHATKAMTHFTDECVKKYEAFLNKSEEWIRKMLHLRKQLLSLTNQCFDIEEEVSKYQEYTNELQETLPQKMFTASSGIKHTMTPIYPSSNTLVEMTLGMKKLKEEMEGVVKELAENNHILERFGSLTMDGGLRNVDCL
Kind of test: Selectivity interaction (KinomeScan (DiscoverX)) EUB0000595a TBK1. The settings on record: at 10 µM.

Chain of Casein kinase I isoform delta (P48730 whole entry, looked up, canonical isoform): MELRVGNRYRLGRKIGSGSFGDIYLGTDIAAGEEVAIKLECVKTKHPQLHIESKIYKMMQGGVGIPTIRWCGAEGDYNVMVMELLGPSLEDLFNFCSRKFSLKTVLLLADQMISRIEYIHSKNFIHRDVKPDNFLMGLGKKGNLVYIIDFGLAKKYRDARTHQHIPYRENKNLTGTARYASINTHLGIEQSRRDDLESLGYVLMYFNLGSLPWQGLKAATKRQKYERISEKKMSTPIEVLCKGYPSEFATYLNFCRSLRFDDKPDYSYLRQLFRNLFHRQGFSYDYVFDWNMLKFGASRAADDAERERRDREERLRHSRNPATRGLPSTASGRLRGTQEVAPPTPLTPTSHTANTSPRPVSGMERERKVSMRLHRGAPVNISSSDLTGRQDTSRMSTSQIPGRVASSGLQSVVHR
Chain of Calcium/calmodulin-dependent protein kinase kinase 2 (Homo sapiens) (Q96RR4 2-588 limits assumed): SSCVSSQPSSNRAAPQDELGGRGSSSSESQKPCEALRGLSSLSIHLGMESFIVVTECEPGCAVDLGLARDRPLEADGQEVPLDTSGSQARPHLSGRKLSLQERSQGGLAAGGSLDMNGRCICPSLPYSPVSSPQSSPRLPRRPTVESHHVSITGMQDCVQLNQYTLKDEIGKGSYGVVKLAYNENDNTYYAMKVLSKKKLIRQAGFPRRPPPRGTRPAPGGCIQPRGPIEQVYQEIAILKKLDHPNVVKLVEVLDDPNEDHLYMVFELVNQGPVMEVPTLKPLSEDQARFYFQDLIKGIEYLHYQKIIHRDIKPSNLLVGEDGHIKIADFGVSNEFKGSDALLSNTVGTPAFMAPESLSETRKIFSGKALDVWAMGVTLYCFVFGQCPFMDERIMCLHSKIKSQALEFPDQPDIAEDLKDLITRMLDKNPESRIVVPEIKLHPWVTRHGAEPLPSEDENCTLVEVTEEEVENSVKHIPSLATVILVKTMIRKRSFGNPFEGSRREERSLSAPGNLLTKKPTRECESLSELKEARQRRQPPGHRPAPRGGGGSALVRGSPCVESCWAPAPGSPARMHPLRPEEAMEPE
Chain of Serine/threonine-protein kinase tousled-like 2 (Homo sapiens) (Q86UE8 whole entry, looked up, the tested form may be a part): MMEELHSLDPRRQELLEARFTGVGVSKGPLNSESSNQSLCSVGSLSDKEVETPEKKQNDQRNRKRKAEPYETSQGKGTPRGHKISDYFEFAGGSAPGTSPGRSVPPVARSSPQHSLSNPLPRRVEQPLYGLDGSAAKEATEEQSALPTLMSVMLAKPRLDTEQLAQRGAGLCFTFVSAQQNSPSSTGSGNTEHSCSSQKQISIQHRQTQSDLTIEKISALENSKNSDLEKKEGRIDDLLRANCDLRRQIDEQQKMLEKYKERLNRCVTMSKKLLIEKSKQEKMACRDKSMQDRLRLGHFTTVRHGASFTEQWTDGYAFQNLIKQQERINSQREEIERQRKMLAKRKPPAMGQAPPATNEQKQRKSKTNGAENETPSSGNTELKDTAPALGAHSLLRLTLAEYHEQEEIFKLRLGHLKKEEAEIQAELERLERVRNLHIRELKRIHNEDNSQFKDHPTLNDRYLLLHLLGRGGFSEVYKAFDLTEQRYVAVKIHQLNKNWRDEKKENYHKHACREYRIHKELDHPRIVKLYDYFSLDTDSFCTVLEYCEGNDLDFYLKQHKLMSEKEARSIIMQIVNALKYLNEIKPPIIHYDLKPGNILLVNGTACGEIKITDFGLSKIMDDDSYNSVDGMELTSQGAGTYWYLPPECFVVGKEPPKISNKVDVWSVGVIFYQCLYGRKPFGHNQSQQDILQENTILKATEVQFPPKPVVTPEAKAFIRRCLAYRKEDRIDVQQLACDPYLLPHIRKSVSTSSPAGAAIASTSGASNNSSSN

`Cn1cc(-n2cnc3c(NCc4nc5cc(Cl)c(Cl)cc5[nH]4)nc(N4CCOCC4)nc32)cn1`: the % of inhibition in test [1] was -0.213%. Turning to `CN(C)C/C=C/C(=O)Nc1ccc(C(=O)N2CCCC(Nc3ncc(Cl)c(-c4c[nH]c5ccccc45)n3)C2)cc1` (stereo not given), the % of control in test [2] is 93%.

Regarding `Cc1cc([C@@H](C)Nc2ccccc2C(=O)O)c2nc(N3CCOCC3)cc(=O)n2c1` [AZD-6482], the % of control in test [3] was found to be 83%. `CCc1cc(Nc2nccc(-c3c(-c4ccc(OC)c(C(=O)Nc5c(F)cccc5F)c4)nc4ccccn34)n2)c(OC)cc1N1CCC(N2CCN(S(C)(=O)=O)CC2)CC1`: the % of inhibition in test [4] turned out to be 47%. In the case of `CC[C@@H]1[C@H](F)C(=O)N[C@@H]1COc1nccc2cc(C(N)=O)c(OC)cc12` [ZIMLOVISERTIB], the % of inhibition in test [5] turned out to be 45.6%. For the compound `C=CC(=O)Nc1cccc(C(=O)Nc2ccc(Nc3cc(-c4[nH]c(SC)nc4C)ccn3)cc2)c1`, the % of control was 13% in test [6] (at 1 µM), 3% in test [6] (at 5 µM), 83% in test [7] (at 1 µM) and 82% in test [7] (at 5 µM). `COCC(=O)NC/C=C/c1ccc2ncnc(Nc3ccc(Oc4ccc(C)nc4)c(C)c3)c2c1` [CP-724714] gave a % of control in test [8] of 90%.
